Reference: patent US8916536B2, “Bone-targeting bisphosphonate duplex drugs” (priority 2010, dated 2014)
Counter-ions that a name gives are not always drawn.

What was measured:
[1] = Hydroxyapatite binding of nucleoside-BPs; assay type: physicochemical
Method: It is known that the BPs moiety of conjugates preserves its high affinity for the bone matrix even when coupled to a bulk residue^17,41 The high affinity to the bone matrix is based on the strong binding properties of BPs to hydroxyapatite^42, 43, 44. For this reasons, we analyzed the adsorption properties of 5-FdU-ale and 5-FdU to hydroxyapatite.
5-FdU (246 mg, 1 mmol) or 5-FdU-ale (475 mg) were dissolved in distilled water (100 ml). The A260-units of the obtained solution and the absorbance ratios of 250/260 and 280/260 were determined using an UV-spectrophotometer. After addition of solid hydroxyapatite as listed in Table 2 the obtained suspension was stirred at room temperature for 24 h. Then, an aliquot (1 ml) of the suspension was filtered through a sterile filter and the A260-units of the filtrate were measured. The amount of drug bound to hydroxyapatite was calculated on the basis of the decreased A260-units of the suspension.
(§1) A solution of 5-FdU-ale (475 mg) in 100 ml H2O was acidified to pH 2 by adding HCl and stirred at 50° C. for 24 h, followed by neutralization with solid sodium carbonate. UV-active degradation products were not detectable at 254 nm by TLC-analysis with CHCl3/MeOH (80:20) using silica gel plates. The hydroxyapatite binding of the pretreated 5-FdU-ale was analyzed as described above.

HL-60 (TB) = test: NCI 60-cell line in vitro screen (SRB), growth percent; assay type: cell-based; settings: Leukemia, 10 μM, 48 h incubation, 100% = growth without drug
NCI-H322M = test: as above; assay type: cell-based; settings: Non-small cell lung cancer, 10 μM, 48 h incubation, 100% = growth without drug
SF-268 = test: as above; assay type: cell-based; settings: SF-268, CNS cancer; 10 μM, 48 h incubation; 100% = growth without drug
SNB-75 = test: as above; assay type: cell-based; settings: SNB-75, CNS cancer; 10 μM, 48 h incubation; 100% = growth without drug
OVCAR-3 = test: as above; assay type: cell-based; settings: OVCAR-3, Ovarian cancers; 10 μM, 48 h incubation; 100% = growth without drug
SF-539 = test: as above; assay type: cell-based; settings: SF-539, CNS cancer; 10 μM, 48 h incubation; 100% = growth without drug
CAKI-1 = test: as above; assay type: cell-based; settings: CAKI-1, Renal cancers; 10 μM, 48 h incubation; 100% = growth without drug
60 tumor cell lines = test: NCI 60-cell line in vitro screen, whole panel; assay type: cell-based; settings: 48/59 cell lines; 10 μM, 48 h incubation
[2] = Stability in acidic conditions (pH 2, 50° C., 24 h; TLC / UV ratio); assay type: physicochemical
Method: as §1
The binding study was also used for an indirect assessment of the stability of the nucleoside-BPs in acidic conditions. Binding was reduced by 13% compared to the untreated compound when a solution of 5-FdU-ale was acidified to pH 2 and kept at 50° C. during 24 h prior to the adsorption to hydroxyapatite. The unchanged A250/260 and 280/260 UV-ratio indicate that no cleavage of 5-FdU-ale into the monomer 5-FdU+ ale occurs during treatment with hydroxyapatite under the used conditions.
Thus, the absence of UV-active compounds allows to conclude that 5-FdU-ale is very stable in acidic conditions.

EKVX = test: NCI 60-cell line in vitro screen (SRB), growth percent; assay type: cell-based; settings: Non-small cell lung cancer, 10 μM, 48 h incubation, 100% = growth without drug
HOP-62 = test: as above; assay type: cell-based; settings: HOP-62, Non-small cell lung cancer; 10 μM, 48 h incubation; 100% = growth without drug
MDA-MB-435 = test: as above; assay type: cell-based; settings: MDA-MB-435, Melanomas; 10 μM, 48 h incubation; 100% = growth without drug
MALME-3M = test: as above; assay type: cell-based; settings: Melanomas, 10 μM, 48 h incubation, 100% = growth without drug
[3] = test system: 6 different tumor cell lines; settings: 6 days of incubation, in average, read-out: concentration for 50% growth inhibition; cited from earlier work
[4] = hydroxyapatite 7 g, drug in 100 ml water, 24 h room temperature
[5] = hydroxyapatite 5 g, drug in 100 ml water, 24 h room temperature
[6] = hydroxyapatite 7 g, acid pretreatment (pH 2, 50° C., 24 h, then neutralized)

With `O=c1[nH]c(=O)n([C@H]2C[C@H](O)[C@@H](CO)O2)cc1F` [5-FdU, 2′-deoxy-5-fluorouridine, reference compound] the Bound drug % [1, 4] was 15% and the Bound drug mg [1, 4] was 37 mg.
In the case of `O=c1nc(NCCCC(O)(P(=O)(O)O)P(=O)(O)O)c(F)cn1C1CC(O)C(CO)O1` (centres unmarked) [6a, N^4-[butyl-(4-hydroxy-4-phosphono)phosphonate]-5-fluoro-2′-deoxycytidine], the “Growth [%]” value (HL-60 (TB)) is reported as 61.75%, the “Growth [%]” value (NCI-H322M) is reported as 88.84% and the “Growth [%]” value (SF-268) is reported as 86.64%. The “Growth [%]” value (SNB-75) was 87.12%, the “Growth [%]” value (OVCAR-3) was 88.34% and the “Growth [%]” value (SF-539) was 94.79%. The “reduction of binding compared to the untreated compound” value ([1]; acidified to pH 2, 50° C., 24 h prior to adsorption) was 13%, the Bound drug % [1, 5] was 41% and the Bound drug mg [1, 5] was 195 mg. For the same compound, the “adsorption to hydroxyapatite relative to 5-FdU” value ([1]; hydroxyapatite 7 g) was “approximately sixfold higher”, the Bound drug % [1, 6] was 74% and the Bound drug mg [1, 6] was 352 mg. For the same compound, the Bound drug % [1, 4] was 87%, the Bound drug mg [1, 4] was 414 mg and the “Growth [%]” value (CAKI-1) was 79.14%. The “growth inhibition in the other cell lines” value (60 tumor cell lines) was “did not show any growth inhibition”, the “cleavage into the monomers 5-FdU + ale” value ([2]; during treatment with hydroxyapatite, unchanged A250/260 and 280/260 UV-ratio) was “no cleavage” and the “stability in acidic conditions” value ([2]; pH 2, 50° C., 24 h, TLC of supernatant, no UV-active compounds) was “very stable”. The “Growth [%]” value (EKVX) was 82.45%, the “Growth [%]” value (HOP-62) was 93.16% and the “Growth [%]” value (MDA-MB-435) was 86.95%. For the same compound, the “Growth [%]” value (MALME-3M) was 89.24%.
In the case of `O=P(O)(O)C(Cl)(Cl)P(=O)(O)O` [Clondronat], the IC50 [3] is given as 1 to 1410 µM.
In the case of `NCCCC(O)(P(=O)(O)O)P(=O)(O)O` [alendronate, (4-Amino-1-hydroxy-1-phosphonobutyl)phosphonate monosodium salt*3H20], the IC50 [3] is listed as 11 to 1860 µM.
